Experimental data from ChEMBL document CHEMBL3112545, “Gabapentin hybrid peptides and bioconjugates” (Bioorg Med Chem, 2014).
Calls of active or inactive are those of the source. No cut-off for these calls is given here.

What was measured:
Mus musculus [1] = test: Toxicity in ip dosed capasaicin-induced SKH1-hrhr mouse assessed as mortality measured up to 3 hrs; format: organism-based; conditions: in vivo
Mus musculus [2] = test: Toxicity in ip dosed SKH1-hrhr mouse assessed as mortality measured up to 3 hrs; format: organism-based; conditions: in vivo
Mus musculus [3] = test: Toxicity in ip dosed SKH1-hrhr mouse assessed as change in reward licking events measured up to 3 hrs; format: organism-based; conditions: in vivo
[4] = Stability of the compound assessed as intramolecular cyclization/decomposition measured over 12 months; format: physicochemical; conditions: 8766 h
Mus musculus [5] = test: Antinociceptive activity in ip dosed capsaicin-induced SKH1-hrhr mouse assessed change in reward licking events measured 30 mins post injection; format: functional, organism-based
[6] = Toxicity in mouse; format: organism-based; conditions: in vivo
[7] = Stability of the compound in HCl-MeOH/HCl-1,4-dioxane/TFA-DCM assessed as release of gabapentin, O-nucleophile, 2-aza-spiro[4,5]decan-3-one; format: physicochemical; conditions: buffer
[8] = Stability of the compound assessed as cyclization into tert-butyl 3-oxo-2-azaspiro[4.5]decane-2-carboxylate at room temperature measured over 12 months; format: physicochemical; conditions: 8766 h
[9] = Oral bioavailability in cynomolgus monkey at 39 mg/kg; format: ADME, organism-based, Macaca fascicularis; conditions: in vivo
Cynomolgus monkey = test: Oral bioavailability in cynomolgus monkey assessed as gabapentin at 36 mg/kg; format: ADME, organism-based, Macaca fascicularis; conditions: in vivo
[10] = Stability of the compound in HCl-MeOH/HCl-1,4-dioxane/TFA-DCM assessed as release of gabapentin, S-nucleophile, 2-aza-spiro[4,5]decan-3-one; format: physicochemical; conditions: buffer

Structure (SMILES): C[C@H](N)C(=O)NCC1(CC(=O)O)CCCCC1
- Activity (Mus musculus [1]): Non-toxic
- Activity (Mus musculus [2]): Non-toxic
- Activity (Mus musculus [3]): Non-toxic
- Stability [4]: Stable
- Activity (Mus musculus [5]): Active

Structure (SMILES): O=C1CC2(CCCCC2)CN1
- LD50 [6]: 300 mg/kg

Structure (SMILES): C[C@H](NC(=O)CNC(=O)OCc1ccccc1)C(=O)NCCC(=O)NCC1(CC(=O)O)CCCCC1
- Stability [4]: Stable

Structure (SMILES): CC(C)[C@H](NC(=O)OCc1ccccc1)C(=O)NCC1(CC(=O)O)CCCCC1
- Stability [4]: Stable

Structure (SMILES): C[C@H](NC(=O)CN)C(=O)NCCC(=O)NCC1(CC(=O)O)CCCCC1
- Stability [4]: Stable

Structure (SMILES): CC(C)[C@H]1CC[C@H](C)C[C@@H]1OC(=O)CC1(CNC(=O)OC(C)(C)C)CCCCC1
- Stability [7]: Unstable
- Stability [8]: Unstable

Structure (SMILES): C[C@H](NC(=O)OC(C)(C)C)C(=O)N[C@@H](Cc1ccccc1)C(=O)NCC1(CC(=O)O)CCCCC1
- Stability [4]: Stable

Structure (SMILES): C[C@H](NC(=O)OCc1ccccc1)C(=O)NCC1(CC(=O)O)CCCCC1
- Stability [4]: Stable

Structure (SMILES): NCC1(CC(=O)O)CCCCC1 [GABAPENTIN]
- Activity (Mus musculus [2]): Non-toxic
- Activity (Mus musculus [3]): Non-toxic
- bioavailability [9]: 25%
- LD50 [6]: > 8000 mg/kg

Structure (SMILES): CC(OC(=O)NCC1(CC(=O)O)CCCCC1)OC(=O)C(C)C (stereo not given) [GABAPENTIN ENACARBIL]
- F (Cynomolgus monkey): 84%

Structure (SMILES): Cl.NCC1(CC(=O)NCc2ccccc2)CCCCC1
- Activity (Mus musculus [2]): Non-toxic
- Activity (Mus musculus [3]): Non-toxic

Structure (SMILES): CC(C)CCC[C@@H](C)[C@H]1CC[C@H]2[C@@H]3CC=C4C[C@@H](OC(=O)CC5(CNC(=O)OC(C)(C)C)CCCCC5)CC[C@]4(C)[C@H]3CC[C@]12C
- Stability [7]: Unstable

Structure (SMILES): CC(C)(C)OC(=O)NCC1(CC(=O)Sc2ccccc2)CCCCC1
- Stability [10]: Unstable

Structure (SMILES): CC(N)C(=O)NC(Cc1ccccc1)C(=O)NCC1(CC(=O)O)CCCCC1.Cl (racemic)
- Stability [4]: Stable

Structure (SMILES): CC(C)[C@H](N)C(=O)NCC1(CC(=O)O)CCCCC1
- Stability [4]: Stable

Structure (SMILES): COC(=O)[C@H](CSC(=O)CC1(CNC(=O)OC(C)(C)C)CCCCC1)NC(=O)[C@H](Cc1ccccc1)NC(=O)OCc1ccccc1
- Stability [10]: Unstable
